From US20130102595A1 (Curis, Inc., priority 2011, published 2013)

What was measured:
[1] = system: HDACs (HeLa cell nuclear extracts); test: HDAC enzymatic activity, Biomol Color de Lys system; format: biochemical; conditions: 1 hour, 25° C.
Protocol: (E) an In Vitro Assay which Determines the Ability of a Test Compound to Inhibit HDAC Enzymatic Activity.
HDAC inhibitory activity was assessed using the Biomol Color de Lys system (AK-500, Biomol, Plymouth Meeting, Pa.). Briefly, HeLa cell nuclear extracts were used as a source of HDACs. Different concentrations of test compounds were serially diluted in dimethylsulphoxide (DMSO) and added to HeLa cell nuclear extracts in the presence of a colorimetric artificial substrate. Final assay condition contained 50 mM Tris/Cl, pH 8.0, 137 mM NaCl, 2.7 mM KCl and 1 mM MgCl2. Reactions were carried in room temperature (25° C.) for 1 hour before addition of developer for termination. Relative enzyme activity was measured in the WALLAC Victor II 1420 microplate reader as fluorescence intensity (excitation: 350-380 nm; emission: 440-460 nm). Data were analyzed using GraphPad Prism (v4.0a) with a sigmoidal dose response curve fitting for IC50 calculation.

PI3Kα (p110α/p85α) = target: T1, PI3Kα (p110α/p85α) (Homo sapiens, UniProt P42336); test: PI3Kα ADP-Glo assay; format: biochemical; conditions: 20 μM PIP2, 10 μM ATP, 30 minutes
T1 construct: GST (N); made in house; host or cells: Baculovirus-infected Sf9 cells
T1 sequence (P42336 whole entry): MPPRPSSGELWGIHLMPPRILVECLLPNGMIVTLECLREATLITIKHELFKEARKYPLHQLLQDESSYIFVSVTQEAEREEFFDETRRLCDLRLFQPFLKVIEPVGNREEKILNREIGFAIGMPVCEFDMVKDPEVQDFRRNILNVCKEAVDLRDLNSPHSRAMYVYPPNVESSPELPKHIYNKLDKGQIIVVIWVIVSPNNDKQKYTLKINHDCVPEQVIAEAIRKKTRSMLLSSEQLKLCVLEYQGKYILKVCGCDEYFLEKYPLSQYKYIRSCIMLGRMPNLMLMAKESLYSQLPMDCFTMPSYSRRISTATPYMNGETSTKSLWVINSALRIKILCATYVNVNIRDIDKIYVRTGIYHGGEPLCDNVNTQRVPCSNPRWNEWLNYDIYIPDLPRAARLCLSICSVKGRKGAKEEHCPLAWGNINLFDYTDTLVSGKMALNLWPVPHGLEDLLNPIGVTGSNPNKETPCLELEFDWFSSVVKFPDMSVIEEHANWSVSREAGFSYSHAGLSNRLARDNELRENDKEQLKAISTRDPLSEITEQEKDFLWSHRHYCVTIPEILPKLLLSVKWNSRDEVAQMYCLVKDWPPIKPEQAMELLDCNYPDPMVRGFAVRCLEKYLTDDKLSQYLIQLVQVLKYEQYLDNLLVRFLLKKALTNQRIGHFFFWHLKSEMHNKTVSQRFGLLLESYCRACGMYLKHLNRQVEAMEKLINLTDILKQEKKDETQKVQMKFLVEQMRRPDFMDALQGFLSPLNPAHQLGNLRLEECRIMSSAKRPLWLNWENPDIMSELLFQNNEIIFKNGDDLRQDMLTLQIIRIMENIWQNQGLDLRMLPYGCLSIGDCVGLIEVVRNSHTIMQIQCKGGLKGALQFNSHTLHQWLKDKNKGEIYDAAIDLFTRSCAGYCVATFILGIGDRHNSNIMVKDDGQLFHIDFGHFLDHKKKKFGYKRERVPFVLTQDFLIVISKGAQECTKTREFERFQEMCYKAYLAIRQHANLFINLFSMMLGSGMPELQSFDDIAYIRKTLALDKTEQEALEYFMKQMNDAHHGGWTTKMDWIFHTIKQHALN
T1 sequence (P27986 whole entry partner): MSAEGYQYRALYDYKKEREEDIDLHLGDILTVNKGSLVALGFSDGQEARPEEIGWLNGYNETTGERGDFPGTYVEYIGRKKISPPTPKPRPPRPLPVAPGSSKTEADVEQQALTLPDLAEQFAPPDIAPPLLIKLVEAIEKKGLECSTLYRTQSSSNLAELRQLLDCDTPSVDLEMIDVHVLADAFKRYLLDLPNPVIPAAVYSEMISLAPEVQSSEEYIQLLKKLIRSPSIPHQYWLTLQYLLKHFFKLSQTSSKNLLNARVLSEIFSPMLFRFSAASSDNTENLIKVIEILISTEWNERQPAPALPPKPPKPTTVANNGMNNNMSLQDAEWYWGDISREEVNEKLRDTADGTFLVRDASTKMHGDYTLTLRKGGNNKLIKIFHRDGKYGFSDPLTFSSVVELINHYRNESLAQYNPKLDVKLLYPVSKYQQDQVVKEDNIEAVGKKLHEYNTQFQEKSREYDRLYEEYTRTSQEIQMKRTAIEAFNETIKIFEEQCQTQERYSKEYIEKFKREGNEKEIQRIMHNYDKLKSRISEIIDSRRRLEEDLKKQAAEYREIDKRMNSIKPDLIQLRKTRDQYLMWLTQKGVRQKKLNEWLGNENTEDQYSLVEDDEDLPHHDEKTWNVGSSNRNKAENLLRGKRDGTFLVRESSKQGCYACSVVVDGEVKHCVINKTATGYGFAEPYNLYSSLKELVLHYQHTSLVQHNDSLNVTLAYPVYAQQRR
Protocol: (A) an In Vitro Assay which Determines the Ability of a Test Compound to Inhibit PI3Kα.
Activity of PI3Kα was measured using ADP-Glo assay from Promega. PI3Kα, a complex of N-terminal GST-tagged recombinant full-length human p110α (GenBank, Accession No. U79143) and N-terminal His tagged recombinant full length human p85a (GenBank Accession No. XM—043865) were co-expressed in a Baculovirus infected Sf9 cell expression system. The ADP-Glo assay was performed to measure the amount of ADP generated from ATP hydrolysis coupled with PIP2 phosphorylation by the purified recombinant PI3Kα (p110α/p85α). PI3Kα was incubated with 20 μM PIP2 substrate in the reaction buffer (50 mM HEPES, pH 7.4, 150 mM NaCl, 5 mM MgCl2, 1 mM DTT, 3 uM Naorthovanadate, 10 μM ATP and 0.5% DMSO) for 30 minutes at room temperature. The ADP generated was then detected by ADP-Glo assay from Promega, a luminescent ADP detection assay. The ADP-Glo assay is performed in two steps; first, after the kinase reaction, ADP-Glo Reagent is added to terminate the kinase reaction and deplete the remaining ATP. Second, the Kinase Detection Reagent is added to simultaneously convert ADP to ATP and allow the newly synthesized ATP to be measured using a luciferase/luciferin reaction.

Structure (SMILES) | IC50 [1] [nM] | IC50 (PI3Kα (p110α/p85α)) [nM]
CS(=O)(=O)N1CCN(Cc2cc3nc(-c4cccc5c4cnn5CCCCCCC(=O)NO)nc(N4CCOCC4)c3s2)CC1 [Compound 5, N-hydroxy-7-(4-(6-((4-(methylsulfonyl)piperazin-1-yl)methyl)-4-morpholinothieno[3,2-d]pyrimidin-2-yl)-1H-indazol-1-yl)heptanamide] | < 100 | > 10000
CS(=O)(=O)N1CCN(Cc2cc3nc(-c4cccc5[nH]ncc45)nc(NCCCCC(=O)NO)c3s2)CC1 [Compound 34] | – | > 10000
CS(=O)(=O)N1CCN(Cc2cc3nc(-c4cccc5[nH]ncc45)nc(NCCCCCC(=O)NO)c3s2)CC1 [Compound 35] | – | > 10000
CS(=O)(=O)N1CCN(Cc2cc3nc(-c4cccc5[nH]ncc45)nc(NCCCCCCC(=O)NO)c3s2)CC1 [Compound 36] | – | > 10000
CN(Cc1cc2nc(-c3cccc4[nH]ncc34)nc(N3CCNCC3)c2s1)c1ncc(C(=O)NO)cn1 [Compound 60] | < 100 | > 10000
CN1CCN(c2nc(-c3cccc4[nH]ncc34)nc3cc(CN(C)c4ncc(C(=O)NO)cn4)sc23)CC1 [Compound 61] | < 100 | > 10000
CC(=O)N1CCN(c2nc(-c3cccc4[nH]ncc34)nc3cc(CN(C)c4ncc(C(=O)NO)cn4)sc23)CC1 [Compound 62] | < 100 | > 10000
CN(Cc1cc2nc(-c3cccc4[nH]ncc34)nc(N3CCN(CCO)CC3)c2s1)c1ncc(C(=O)NO)cn1 [Compound 63] | < 100 | > 10000
CC1COCC(C)N1c1nc(-c2cccc3[nH]ncc23)nc2cc(CN(C)c3ncc(C(=O)NO)cn3)sc12 (centres unmarked) [Compound 66] | < 100 | 100 to 1000
CN(Cc1cc2nc(-c3cccc4[nH]ncc34)nc(N3CCCCC3)c2s1)c1ncc(C(=O)NO)cn1 [Compound 67] | < 100 | 100 to 1000
CN(Cc1cc2nc(-c3ccc4c(c3)OCCN4)nc(N3CCOCC3)c2s1)c1ncc(C(=O)NO)cn1 [Compound 191] | < 100 | –
CC(c1cc2nc(-c3ccc(N)cc3)nc(N3CCOCC3)c2s1)N(C)c1ncc(C(=O)NO)cn1 (centres unmarked) [Compound 214] | < 100 | –
CN(c1ncc(C(=O)NO)cn1)C(C)(C)c1cc2nc(-c3ccc(N)cc3)nc(N3CCOCC3)c2s1 [Compound 270] | < 100 | –

Other lines, results leading:

IC50 [1] [nM] | IC50 (PI3Kα (p110α/p85α)) [nM] | Structure (SMILES)
< 100 | 100 to 1000 | O=C(CCCCNc1cc2nc(-c3cccc4[nH]ncc34)nc(N3CCOCC3)c2s1)NO [Compound 18]
< 100 | 100 to 1000 | O=C(CCCCCNc1cc2nc(-c3cccc4[nH]ncc34)nc(N3CCOCC3)c2s1)NO [Compound 19]
< 100 | 100 to 1000 | O=C(CCCCCCNc1cc2nc(-c3cccc4[nH]ncc34)nc(N3CCOCC3)c2s1)NO [Compound 20]
> 10000 | < 100 | O=C(NO)c1cc2nc(-c3cccc4[nH]ncc34)nc(N3CCOCC3)c2s1 [Compound 45]
1000 to 10000 | 100 to 1000 | O=C(/C=C/c1cc2nc(-c3cccc4[nH]ncc34)nc(N3CCOCC3)c2s1)NO [Compound 46]
< 100 | < 100 | O=C(NO)c1cnc(N2CCC(CNc3cc4nc(-c5cccc6[nH]ncc56)nc(N5CCOCC5)c4s3)CC2)nc1 [Compound 48]
100 to 1000 | < 100 | CN(CC1CCN(c2ncc(C(=O)NO)cn2)CC1)c1cc2nc(-c3cccc4[nH]ncc34)nc(N3CCOCC3)c2s1 [Compound 49]
< 100 | < 100 | O=C(/C=C/c1ccc(S(=O)(=O)Nc2cc3nc(-c4cccc5[nH]ncc45)nc(N4CCOCC4)c3s2)cc1)NO [Compound 50]
100 to 1000 | < 100 | O=C(NO)c1cnc(N2CCN(S(=O)(=O)c3cc4nc(-c5cccc6[nH]ncc56)nc(N5CCOCC5)c4s3)CC2)nc1 [Compound 51]
< 100 | 100 to 1000 | CC1CN(c2nc(-c3cccc4[nH]ncc34)nc3cc(CN(C)c4ncc(C(=O)NO)cn4)sc23)CC(C)O1 (centres unmarked) [Compound 65]
– | < 100 | CN(Cc1cc2nc(-c3cccc4[nH]c(=O)[nH]c34)nc(N3CCOCC3)c2s1)c1ncc(C(=O)NO)cn1 [Compound 316]
